{
  "source": "PubChem BioAssay AID1963980",
  "about": "(Molecular Pharmacology Branch, DTP, NCI, 2024)",
  "system": "475296-252-R-J1-PDC spheroid viability",
  "assay": "Anticancer human tumor 475296-252-R-J1-PDC patient-derived rectal carcinoma cell line growth inhibition [PI3K]",
  "details": "spheroids with HUVEC and MSC; for IC50: curve of first compound; for viability, T/C: stronger effect = lower value",
  "summary_of_the_method": "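We assembled tumor spheroids that included a stromal compartment of HUVEC and MSCs, then exposed them to targeted agents alone and together with PI3K pathway inhibitors. Concentration series descended by half-log from clinically achievable Cmax levels. Viability served as the endpoint.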",
  "key": {"[1]": {"details": "second compound 0.00316 µM, first compound 0.0316 µM"}, "[2]": {"details": "second compound 0.00316 µM, first compound 0.1 µM"}, "[3]": {"details": "second compound 0.01 µM, first compound 0.0316 µM"}, "[4]": {"details": "second compound 0.01 µM, first compound 0.1 µM"}, "[5]": {"details": "second compound 0.0316 µM, first compound 0.0316 µM"}, "[6]": {"details": "second compound 0.0316 µM, first compound 0.1 µM"}, "[7]": {"details": "second compound 0.1 µM, first compound 0.0316 µM"}, "[8]": {"details": "second compound 0.1 µM, first compound 0.1 µM"}, "[9]": {"details": "second compound 0.316 µM, first compound 0.0316 µM"}, "[10]": {"details": "second compound 0.316 µM, first compound 0.1 µM"}, "[11]": {"details": "second compound 1 µM, first compound 0.0316 µM"}, "[12]": {"details": "second compound 1 µM, first compound 0.1 µM"}},
  "data": [
    {"compound": "CC(C)n1nc(-c2ccc3oc(N)nc3c2)c2c(N)ncnc21", "note": "+ COc1c(OCCCN2CCOCC2)ccc2c3n(c(=NC(=O)c4cnc(N)nc4)nc12)CCN3;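 also: spheroids exposed to agents for seven days before readout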", "values": [
      {"measurement": "IC50", "setting": "second compound 0.00316 µM", "result": "> 100", "unit": "nM"},
      {"measurement": "IC50", "setting": "second compound 0.01 µM", "result": "> 100", "unit": "nM"},
      {"measurement": "IC50", "setting": "second compound 0.0316 µM", "result": "> 100", "unit": "nM"},
      {"measurement": "IC50", "setting": "second compound 0.1 µM", "result": 98.7, "unit": "nM"},
      {"measurement": "IC50", "setting": "second compound 0.316 µM", "result": 49, "unit": "nM"},
      {"measurement": "IC50", "setting": "second compound 1 µM", "result": 34.4, "unit": "nM"},
      {"measurement": "viability, T/C", "setting": "second compound 0.00316 µM, first compound 0.000316 µM", "result": 96.8, "unit": "%"},
      {"measurement": "viability, T/C", "setting": "second compound 0.00316 µM, first compound 0.001 µM", "result": 99.5, "unit": "%"},
      {"measurement": "viability, T/C", "setting": "second compound 0.00316 µM, first compound 0.00316 µM", "result": 84.6, "unit": "%"},
      {"measurement": "viability, T/C", "setting": "second compound 0.00316 µM, first compound 0.01 µM", "result": 73.2, "unit": "%"},
      {"measurement": "viability, T/C", "setting": "[1]", "result": 81.4, "unit": "%"},
      {"measurement": "viability, T/C", "setting": "[2]", "result": 56.9, "unit": "%"},
      {"measurement": "viability, T/C", "setting": "second compound 0.01 µM, first compound 0.000316 µM", "result": 96.5, "unit": "%"},
      {"measurement": "viability, T/C", "setting": "second compound 0.01 µM, first compound 0.001 µM", "result": 90.7, "unit": "%"},
      {"measurement": "viability, T/C", "setting": "second compound 0.01 µM, first compound 0.00316 µM", "result": 97.4, "unit": "%"},
      {"measurement": "viability, T/C", "setting": "second compound 0.01 µM, first compound 0.01 µM", "result": 92, "unit": "%"},
      {"measurement": "viability, T/C", "setting": "[3]", "result": 75.2, "unit": "%"},
      {"measurement": "viability, T/C", "setting": "[4]", "result": 64.3, "unit": "%"},
      {"measurement": "viability, T/C", "setting": "second compound 0.0316 µM, first compound 0.000316 µM", "result": 91.4, "unit": "%"},
      {"measurement": "viability, T/C", "setting": "second compound 0.0316 µM, first compound 0.001 µM", "result": 85.8, "unit": "%"},
      {"measurement": "viability, T/C", "setting": "second compound 0.0316 µM, first compound 0.00316 µM", "result": 101, "unit": "%"},
      {"measurement": "viability, T/C", "setting": "second compound 0.0316 µM, first compound 0.01 µM", "result": 82, "unit": "%"},
      {"measurement": "viability, T/C", "setting": "[5]", "result": 81.9, "unit": "%"},
      {"measurement": "viability, T/C", "setting": "[6]", "result": 51.7, "unit": "%"},
      {"measurement": "viability, T/C", "setting": "second compound 0.1 µM, first compound 0.000316 µM", "result": 95.2, "unit": "%"},
      {"measurement": "viability, T/C", "setting": "second compound 0.1 µM, first compound 0.001 µM", "result": 84.8, "unit": "%"},
      {"measurement": "viability, T/C", "setting": "second compound 0.1 µM, first compound 0.00316 µM", "result": 78.8, "unit": "%"},
      {"measurement": "viability, T/C", "setting": "second compound 0.1 µM, first compound 0.01 µM", "result": 79.6, "unit": "%"},
      {"measurement": "viability, T/C", "setting": "[7]", "result": 68.8, "unit": "%"},
      {"measurement": "viability, T/C", "setting": "[8]", "result": 48.3, "unit": "%"},
      {"measurement": "viability, T/C", "setting": "second compound 0.316 µM, first compound 0.000316 µM", "result": 71.7, "unit": "%"},
      {"measurement": "viability, T/C", "setting": "second compound 0.316 µM, first compound 0.001 µM", "result": 67.6, "unit": "%"},
      {"measurement": "viability, T/C", "setting": "second compound 0.316 µM, first compound 0.00316 µM", "result": 68.2, "unit": "%"},
      {"measurement": "viability, T/C", "setting": "second compound 0.316 µM, first compound 0.01 µM", "result": 73, "unit": "%"},
      {"measurement": "viability, T/C", "setting": "[9]", "result": 56.5, "unit": "%"},
      {"measurement": "viability, T/C", "setting": "[10]", "result": 35.2, "unit": "%"},
      {"measurement": "viability, T/C", "setting": "second compound 1 µM, first compound 0.000316 µM", "result": 60.8, "unit": "%"},
      {"measurement": "viability, T/C", "setting": "second compound 1 µM, first compound 0.001 µM", "result": 56.7, "unit": "%"},
      {"measurement": "viability, T/C", "setting": "second compound 1 µM, first compound 0.00316 µM", "result": 59.5, "unit": "%"},
      {"measurement": "viability, T/C", "setting": "second compound 1 µM, first compound 0.01 µM", "result": 55.6, "unit": "%"},
      {"measurement": "viability, T/C", "setting": "[11]", "result": 51.6, "unit": "%"},
      {"measurement": "viability, T/C", "setting": "[12]", "result": 35.6, "unit": "%"}
    ]},
    {"compound": "C=CC(=O)N1CCN(c2nc(=O)n(-c3c(C)ccnc3C(C)C)c3nc(-c4c(O)cccc4F)c(F)cc23)C(C)C1", "note": "(centres undefined) + CC(Nc1ccc2c(c1)OCCn1cc(N3C(=O)OCC3C(F)F)nc1-2)C(N)=O", "values": [
      {"measurement": "IC50", "setting": "second compound 0.00316 µM", "result": "> 10000", "unit": "nM"},
      {"measurement": "IC50", "setting": "second compound 0.01 µM", "result": "> 10000", "unit": "nM"},
      {"measurement": "IC50", "setting": "second compound 0.0316 µM", "result": "> 10000", "unit": "nM"},
      {"measurement": "IC50", "setting": "second compound 0.1 µM", "result": "> 10000", "unit": "nM"},
      {"measurement": "IC50", "setting": "second compound 0.316 µM", "result": "> 10000", "unit": "nM"},
      {"measurement": "IC50", "setting": "second compound 1 µM", "result": "> 10000", "unit": "nM"},
      {"measurement": "viability, T/C", "setting": "[1]", "result": 83.8, "unit": "%"},
      {"measurement": "viability, T/C", "setting": "[2]", "result": 89.9, "unit": "%"},
      {"measurement": "viability, T/C", "setting": "second compound 0.00316 µM, first compound 0.316 µM", "result": 89.4, "unit": "%"},
      {"measurement": "viability, T/C", "setting": "second compound 0.00316 µM, first compound 1 µM", "result": 92.5, "unit": "%"},
      {"measurement": "viability, T/C", "setting": "second compound 0.00316 µM, first compound 3.16 µM", "result": 102, "unit": "%"},
      {"measurement": "viability, T/C", "setting": "second compound 0.00316 µM, first compound 10 µM", "result": 110, "unit": "%"},
      {"measurement": "viability, T/C", "setting": "[3]", "result": 90.2, "unit": "%"},
      {"measurement": "viability, T/C", "setting": "[4]", "result": 84.9, "unit": "%"},
      {"measurement": "viability, T/C", "setting": "second compound 0.01 µM, first compound 0.316 µM", "result": 101, "unit": "%"},
      {"measurement": "viability, T/C", "setting": "second compound 0.01 µM, first compound 1 µM", "result": 102, "unit": "%"},
      {"measurement": "viability, T/C", "setting": "second compound 0.01 µM, first compound 3.16 µM", "result": 102, "unit": "%"},
      {"measurement": "viability, T/C", "setting": "second compound 0.01 µM, first compound 10 µM", "result": 97.8, "unit": "%"},
      {"measurement": "viability, T/C", "setting": "[5]", "result": 88.3, "unit": "%"},
      {"measurement": "viability, T/C", "setting": "[6]", "result": 97.2, "unit": "%"},
      {"measurement": "viability, T/C", "setting": "second compound 0.0316 µM, first compound 0.316 µM", "result": 91.2, "unit": "%"},
      {"measurement": "viability, T/C", "setting": "second compound 0.0316 µM, first compound 1 µM", "result": 90.2, "unit": "%"},
      {"measurement": "viability, T/C", "setting": "second compound 0.0316 µM, first compound 3.16 µM", "result": 99, "unit": "%"},
      {"measurement": "viability, T/C", "setting": "second compound 0.0316 µM, first compound 10 µM", "result": 96.3, "unit": "%"},
      {"measurement": "viability, T/C", "setting": "[7]", "result": 83.7, "unit": "%"},
      {"measurement": "viability, T/C", "setting": "[8]", "result": 92.2, "unit": "%"},
      {"measurement": "viability, T/C", "setting": "second compound 0.1 µM, first compound 0.316 µM", "result": 96.5, "unit": "%"},
      {"measurement": "viability, T/C", "setting": "second compound 0.1 µM, first compound 1 µM", "result": 103, "unit": "%"},
      {"measurement": "viability, T/C", "setting": "second compound 0.1 µM, first compound 3.16 µM", "result": 94, "unit": "%"},
      {"measurement": "viability, T/C", "setting": "second compound 0.1 µM, first compound 10 µM", "result": 98.6, "unit": "%"},
      {"measurement": "viability, T/C", "setting": "[9]", "result": 77.5, "unit": "%"},
      {"measurement": "viability, T/C", "setting": "[10]", "result": 90.8, "unit": "%"},
      {"measurement": "viability, T/C", "setting": "second compound 0.316 µM, first compound 0.316 µM", "result": 88, "unit": "%"},
      {"measurement": "viability, T/C", "setting": "second compound 0.316 µM, first compound 1 µM", "result": 86.9, "unit": "%"},
      {"measurement": "viability, T/C", "setting": "second compound 0.316 µM, first compound 3.16 µM", "result": 83.4, "unit": "%"},
      {"measurement": "viability, T/C", "setting": "second compound 0.316 µM, first compound 10 µM", "result": 86.2, "unit": "%"},
      {"measurement": "viability, T/C", "setting": "[11]", "result": 82.7, "unit": "%"},
      {"measurement": "viability, T/C", "setting": "[12]", "result": 79, "unit": "%"},
      {"measurement": "viability, T/C", "setting": "second compound 1 µM, first compound 0.316 µM", "result": 87.5, "unit": "%"},
      {"measurement": "viability, T/C", "setting": "second compound 1 µM, first compound 1 µM", "result": 83.5, "unit": "%"},
      {"measurement": "viability, T/C", "setting": "second compound 1 µM, first compound 3.16 µM", "result": 86.6, "unit": "%"},
      {"measurement": "viability, T/C", "setting": "second compound 1 µM, first compound 10 µM", "result": 81.3, "unit": "%"}
    ]}
  ]
}
